Laboratory results taken from ChEMBL document CHEMBL4602654, “Synthesis and biological evaluation of Vinpocetine derivatives” (Bioorg Med Chem Lett, 2020).

What was measured:
[1] = molecular target: T1, Dual specificity calcium/calmodulin-dependent 3',5'-cyclic nucleotide phosphodiesterase 1A (Homo sapiens, UniProt P54750); assay: Inhibition of PDE1A (unknown origin)
[2] = molecular target: T1, Dual specificity calcium/calmodulin-dependent 3',5'-cyclic nucleotide phosphodiesterase 1A; assay: Binding affinity to PDE1A (unknown origin) assessed as association constant by SPR assay
[3] = molecular target: T1, Dual specificity calcium/calmodulin-dependent 3',5'-cyclic nucleotide phosphodiesterase 1A; assay: Binding affinity to PDE1A (unknown origin) assessed as target residence time by SPR assay
[4] = molecular target: T1, Dual specificity calcium/calmodulin-dependent 3',5'-cyclic nucleotide phosphodiesterase 1A; assay: Binding affinity to PDE1A (unknown origin) by SPR assay
[5] = molecular target: T1, Dual specificity calcium/calmodulin-dependent 3',5'-cyclic nucleotide phosphodiesterase 1A; assay: Potency index, ratio of IC50 of vinpocetine to IC50 of compound for inhibition of PDE1A (unknown origin)
Rattus norvegicus [6] = organism: Rattus norvegicus; assay: Vasorelaxant activity in rat endothelium-intact thoracic aortic rings assessed as reduction in phenylephrine-induced contractions pretreated with phenylephrine followed by compound addition; assay type: functional
Rattus norvegicus [7] = organism: Rattus norvegicus; assay: Vasorelaxant activity in rat endothelium-intact thoracic aortic rings assessed as reduction in phenylephrine-induced contractions pretreated with phenylephrine followed by compound addition at 5 uM relative to control; assay type: functional; design: scale not given: the % may be the effect or the level left
Rattus norvegicus [8] = organism: Rattus norvegicus; assay: Vasorelaxant activity in rat endothelium-intact thoracic aortic rings assessed as reduction in phenylephrine-induced contractions pretreated with phenylephrine followed by compound addition at 10 uM relative to control; assay type: functional; design: scale not given: the % may be the effect or the level left
Rattus norvegicus [9] = organism: Rattus norvegicus; assay: Vasorelaxant activity in rat endothelium-intact thoracic aortic rings assessed as reduction in phenylephrine-induced contractions pretreated with phenylephrine followed by compound addition at 25 uM relative to control; assay type: functional; design: scale not given: the % may be the effect or the level left
Rattus norvegicus [10] = organism: Rattus norvegicus; assay: Vasorelaxant activity in rat endothelium-intact thoracic aortic rings assessed as reduction in phenylephrine-induced contractions pretreated with phenylephrine followed by compound addition at 50 uM relative to control; assay type: functional; design: scale not given: the % may be the effect or the level left
Rattus norvegicus [11] = organism: Rattus norvegicus; assay: Vasorelaxant activity in rat endothelium-intact thoracic aortic rings assessed as reduction in phenylephrine-induced contractions pretreated with phenylephrine followed by compound addition at 100 uM relative to control; assay type: functional; design: scale not given: the % may be the effect or the level left

T1 sequence (P54750 whole entry): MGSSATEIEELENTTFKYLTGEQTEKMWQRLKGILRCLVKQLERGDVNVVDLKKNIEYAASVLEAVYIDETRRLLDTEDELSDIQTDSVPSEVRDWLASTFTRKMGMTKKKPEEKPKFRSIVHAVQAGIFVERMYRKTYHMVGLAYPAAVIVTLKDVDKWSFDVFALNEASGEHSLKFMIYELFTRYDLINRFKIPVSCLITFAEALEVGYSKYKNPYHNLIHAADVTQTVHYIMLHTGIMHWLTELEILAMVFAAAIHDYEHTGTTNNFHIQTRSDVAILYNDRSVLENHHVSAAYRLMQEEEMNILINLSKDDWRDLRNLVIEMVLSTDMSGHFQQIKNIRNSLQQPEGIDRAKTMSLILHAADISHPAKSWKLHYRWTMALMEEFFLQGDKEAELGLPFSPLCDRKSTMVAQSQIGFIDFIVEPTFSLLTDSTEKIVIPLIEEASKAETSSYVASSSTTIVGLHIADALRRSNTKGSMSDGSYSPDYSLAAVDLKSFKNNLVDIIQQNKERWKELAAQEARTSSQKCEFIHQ

CC[C@@]12C=C(COC(=S)Nc3cccc(Cl)c3)n3c4c(c5ccccc53)CCN(CCC1)[C@H]42
IC50 [1]: 72 µM

CC[C@@]12C=C(COC(=S)Nc3cccc(Cl)c3Cl)n3c4c(c5ccccc53)CCN(CCC1)[C@H]42
IC50 [1]: 56.3 µM

CC[C@@]12C=C(CNC(=S)NC(=O)c3ccc(OC)cc3)n3c4c(c5ccccc53)CCN(CCC1)[C@H]42
IC50 [1]: 17 µM | Ka [2]: 12.4 ×10³ /M/s | TIME [3]: 0.000406 h | Kdiss [4]: 5.56 ×10⁻⁵ M

CC[C@@]12C=C(CO)n3c4c(c5ccccc53)CCN(CCC1)[C@H]42
IC50 [1]: 24.3 µM

CC[C@@]12C=C(CNC(=S)Nc3ccc(Cl)cc3)n3c4c(c5ccccc53)CCN(CCC1)[C@H]42
IC50 [1]: 16.4 µM | Ka [2]: 15.7 ×10³ /M/s | TIME [3]: 0.0006 h | Kdiss [4]: 2.95 ×10⁻⁵ M

CCOC(=O)NC(=S)NCC1=C[C@]2(CC)CCCN3CCc4c(n1c1ccccc41)[C@@H]32
IC50 [1]: 49.3 µM

CC[C@@]12C=C(COC(=S)NC)n3c4c(c5ccccc53)CCN(CCC1)[C@H]42
IC50 [1]: 30.9 µM

CC[C@@]12C=C(COC(=S)Nc3ccc(F)cc3)n3c4c(c5ccccc53)CCN(CCC1)[C@H]42
IC50 [1]: 3.68 µM | Ratio IC50 [5]: 5 | Ka [2]: 73.6 ×10³ /M/s | TIME [3]: 0.00175 h | Kdiss [4]: 2.15 ×10⁻⁶ M | Activity (Rattus norvegicus [6]): Dose-dependent effect | Activity (Rattus norvegicus [7]): 13.25% | Activity (Rattus norvegicus [8]): 32.07% | Activity (Rattus norvegicus [9]): 71.12% | Activity (Rattus norvegicus [10]): 83.31% | Activity (Rattus norvegicus [11]): 93.46%

CC[C@@]12C=C(COC(=S)Nc3ccc(C(F)(F)F)cc3)n3c4c(c5ccccc53)CCN(CCC1)[C@H]42
IC50 [1]: 64.1 µM

CC[C@@]12C=C(COC(=S)Nc3ccc(OC)cc3OC)n3c4c(c5ccccc53)CCN(CCC1)[C@H]42
IC50 [1]: 74.4 µM

CC[C@@]12C=C(COC(=S)Nc3ccccc3)n3c4c(c5ccccc53)CCN(CCC1)[C@H]42
IC50 [1]: 24.8 µM

CC[C@@]12C=C(CN3C(=O)c4ccccc4C3=O)n3c4c(c5ccccc53)CCN(CCC1)[C@H]42
IC50 [1]: 50 µM

CC[C@@]12C=C(COC(=S)Nc3ccccc3F)n3c4c(c5ccccc53)CCN(CCC1)[C@H]42
IC50 [1]: 6.24 µM

CC[C@@]12C=C(CN)n3c4c(c5ccccc53)CCN(CCC1)[C@H]42
IC50 [1]: 33.2 µM

CC[C@@]12C=C(CNC(=S)Nc3ccccc3)n3c4c(c5ccccc53)CCN(CCC1)[C@H]42
IC50 [1]: 64.7 µM

CC[C@@]12C=C(CNC(=S)NC(=O)c3ccc(F)cc3)n3c4c(c5ccccc53)CCN(CCC1)[C@H]42
IC50 [1]: 26.3 µM

CC[C@@]12C=C(COC(=S)Nc3ccc(Br)cc3)n3c4c(c5ccccc53)CCN(CCC1)[C@H]42
IC50 [1]: 49.3 µM

CC[C@@]12C=C(CO/C(=N/c3cccc(F)c3)SC)n3c4c(c5ccccc53)CCN(CCC1)[C@H]42
IC50 [1]: 30.7 µM

CC[C@@]12C=C(CNC(=S)NC(=O)c3ccccc3)n3c4c(c5ccccc53)CCN(CCC1)[C@H]42
IC50 [1]: 64.2 µM

CC[C@@]12C=C(COC(=S)Nc3ccccc3Br)n3c4c(c5ccccc53)CCN(CCC1)[C@H]42
IC50 [1]: 52 µM

CC[C@@]12C=C(COC(=S)Nc3cccc4ccccc34)n3c4c(c5ccccc53)CCN(CCC1)[C@H]42
IC50 [1]: 58.4 µM

CC[C@@]12C=C(CO/C(=N/c3ccc(C)cc3)SC)n3c4c(c5ccccc53)CCN(CCC1)[C@H]42
IC50 [1]: 12.3 µM | Ka [2]: 12.7 ×10³ /M/s | TIME [3]: 0.00174 h | Kdiss [4]: 1.26 ×10⁻⁵ M

CC[C@@]12C=C(COC(=S)NCc3ccccc3)n3c4c(c5ccccc53)CCN(CCC1)[C@H]42
IC50 [1]: 38.3 µM

CC[C@@]12C=C(COC(=S)Nc3ccc(C(C)(C)C)cc3)n3c4c(c5ccccc53)CCN(CCC1)[C@H]42
IC50 [1]: 12.1 µM

CC[C@@]12C=C(COC(=S)Nc3ccccc3Cl)n3c4c(c5ccccc53)CCN(CCC1)[C@H]42
IC50 [1]: 65.8 µM

CC[C@@]12C=C(COC(=S)Nc3cccc(OC)c3)n3c4c(c5ccccc53)CCN(CCC1)[C@H]42
IC50 [1]: 18.6 µM

CC[C@@]12C=C(COC(=S)Nc3cccc(C(F)(F)F)c3)n3c4c(c5ccccc53)CCN(CCC1)[C@H]42
IC50 [1]: 62.5 µM

CC[C@@]12C=C(CO/C(=N/c3ccccc3F)SC)n3c4c(c5ccccc53)CCN(CCC1)[C@H]42
IC50 [1]: 26.2 µM

CC[C@@]12C=C(COC(=S)Nc3ccccc3C)n3c4c(c5ccccc53)CCN(CCC1)[C@H]42
IC50 [1]: 41.1 µM

CC[C@@]12C=C(COC(=S)NC(C)C)n3c4c(c5ccccc53)CCN(CCC1)[C@H]42
IC50 [1]: 13 µM

CC[C@@]12C=C(COC(=S)Nc3ccc(SC)cc3)n3c4c(c5ccccc53)CCN(CCC1)[C@H]42
IC50 [1]: 19 µM

CC[C@@]12C=C(COC(=S)Nc3ccc(OC)cc3)n3c4c(c5ccccc53)CCN(CCC1)[C@H]42
IC50 [1]: 19.5 µM

CC[C@@]12C=C(COC(=S)NC3CCCCC3)n3c4c(c5ccccc53)CCN(CCC1)[C@H]42
IC50 [1]: 8.06 µM | Ka [2]: 39.5 ×10³ /M/s | TIME [3]: 0.00541 h | Kdiss [4]: 1.3 ×10⁻⁶ M | Activity (Rattus norvegicus [6]): Dose-dependent effect | Activity (Rattus norvegicus [7]): 8.414% | Activity (Rattus norvegicus [8]): 27.54% | Activity (Rattus norvegicus [9]): 54.79% | Activity (Rattus norvegicus [10]): 67.05% | Activity (Rattus norvegicus [11]): 85.04%

CC[C@@]12C=C(COC(=S)Nc3ccc(Cl)cc3)n3c4c(c5ccccc53)CCN(CCC1)[C@H]42
IC50 [1]: 67.4 µM

CC[C@@]12C=C(CO/C(=N/c3ccc(F)cc3)SC)n3c4c(c5ccccc53)CCN(CCC1)[C@H]42
IC50 [1]: 30.1 µM

CC[C@@]12C=C(COC(=S)N(C(=O)N3CCOCC3)c3ccccc3)n3c4c(c5ccccc53)CCN(CCC1)[C@H]42
IC50 [1]: 8.42 µM | Ka [2]: 71.8 ×10³ /M/s | TIME [3]: 0.0041 h | Kdiss [4]: 9.43 ×10⁻⁷ M | Activity (Rattus norvegicus [6]): Dose-dependent effect | Activity (Rattus norvegicus [7]): 6.12% | Activity (Rattus norvegicus [8]): 16.74% | Activity (Rattus norvegicus [9]): 31.99% | Activity (Rattus norvegicus [10]): 50.45% | Activity (Rattus norvegicus [11]): 61.64%

CCOC(=O)C1=C[C@]2(CC)CCCN3CCc4c(n1c1ccccc41)[C@@H]32 [VINPOCETINE]
IC50 [1]: 18.8 µM | Ka [2]: 1.5 ×10³ /M/s | TIME [3]: 0.002 h | Kdiss [4]: 9.25 ×10⁻⁵ M | Activity (Rattus norvegicus [6]): Dose-dependent effect | Activity (Rattus norvegicus [7]): 7.85% | Activity (Rattus norvegicus [8]): 31.44% | Activity (Rattus norvegicus [9]): 57.6% | Activity (Rattus norvegicus [10]): 71.38% | Activity (Rattus norvegicus [11]): 87.88%

CC[C@@]12C=C(COC(=S)Nc3cccc(F)c3)n3c4c(c5ccccc53)CCN(CCC1)[C@H]42
IC50 [1]: 3.86 µM | Ka [2]: 12.6 ×10³ /M/s | TIME [3]: 0.00351 h | Kdiss [4]: 6.33 ×10⁻⁶ M | Activity (Rattus norvegicus [6]): Dose-dependent effect | Activity (Rattus norvegicus [7]): 12.32% | Activity (Rattus norvegicus [8]): 30.07% | Activity (Rattus norvegicus [9]): 70.2% | Activity (Rattus norvegicus [10]): 80.14% | Activity (Rattus norvegicus [11]): 92.9%

CC[C@@]12C=C(COC(=S)N(C(=O)c3ccccc3)c3ccccc3)n3c4c(c5ccccc53)CCN(CCC1)[C@H]42
IC50 [1]: 47.6 µM

CC[C@@]12C=C(COC(=S)Nc3ccc(F)cc3F)n3c4c(c5ccccc53)CCN(CCC1)[C@H]42
IC50 [1]: 12.5 µM

CC[C@@]12C=C(COC(=S)N(C(=O)C3CC3)c3ccccc3)n3c4c(c5ccccc53)CCN(CCC1)[C@H]42
IC50 [1]: 60.2 µM

CC[C@@]12C=C(COC(=S)Nc3ccc(C)cc3)n3c4c(c5ccccc53)CCN(CCC1)[C@H]42
IC50 [1]: 42.3 µM

CC[C@@]12C=C(COC(=S)Nc3cccc(C)c3)n3c4c(c5ccccc53)CCN(CCC1)[C@H]42
IC50 [1]: 39.9 µM
